# In patent publication US10501734B2, “Compositions and methods of use thereof for making polypeptides with many instances of nonstandard amino acids” (Yale University, priority 2014, dated 2019):
# Non-standard residues stand in square brackets, D forms with d. Phe(4-N3) = [N-]=[N+]=Nc1ccc(C[C@H](N)C(=O)O)cc1
# B1: ELPs containing 30 pAzF nsAAs: ELP(30TAG)-GFP with 30 pAzF conjugated by click reaction to palmitic acid-alkyne (conjugate)
# chain: SKGPGVPGGGVPGAGVPG[Phe(4-N3)](palmitic acid‑alkyne)GVPGGGVPGAGVPG[Phe(4-N3)](palmitic acid‑alkyne)GVPGGGVPGAGVPG[Phe(4-N3)](palmitic acid‑alkyne)GVPGGGVPGAGVPG[Phe(4-N3)](palmitic acid‑alkyne)GVPGGGVPGAGVPG[Phe(4-N3)](palmitic acid‑alkyne)GVPGGGVPGAGVPG[Phe(4-N3)](palmitic acid‑alkyne)GVPGGGVPGAGVPG[Phe(4-N3)](palmitic acid‑alkyne)GVPGGGVPGAGVPG[Phe(4-N3)](palmitic acid‑alkyne)GVPGGGVPGAGVPG[Phe(4-N3)](palmitic acid‑alkyne)GVPGGGVPGAGVPG[Phe(4-N3)](palmitic acid‑alkyne)GVPGGGVPGAGVPG[Phe(4-N3)](palmitic acid‑alkyne)GVPGGGVPGAGVPG[Phe(4-N3)](palmitic acid‑alkyne)GVPGGGVPGAGVPG[Phe(4-N3)](palmitic acid‑alkyne)GVPGGGVPGAGVPG[Phe(4-N3)](palmitic acid‑alkyne)GVPGGGVPGAGVPG[Phe(4-N3)](palmitic acid‑alkyne)GVPGGGVPGAGVPG[Phe(4-N3)](palmitic acid‑alkyne)GVPGGGVPGAGVPG[Phe(4-N3)](palmitic acid‑alkyne)GVPGGGVPGAGVPG[Phe(4-N3)](palmitic acid‑alkyne)GVPGGGVPGAGVPG[Phe(4-N3)](palmitic acid‑alkyne)GVPGGGVPGAGVPG[Phe(4-N3)](palmitic acid‑alkyne)GVPGGGVPGAGVPG[Phe(4-N3)](palmitic acid‑alkyne)GVPGGGVPGAGVPG[Phe(4-N3)](palmitic acid‑alkyne)GVPGGGVPGAGVPG[Phe(4-N3)](palmitic acid‑alkyne)GVPGGGVPGAGVPG[Phe(4-N3)](palmitic acid‑alkyne)GVPGGGVPGAGVPG[Phe(4-N3)](palmitic acid‑alkyne)GVPGGGVPGAGVPG[Phe(4-N3)](palmitic acid‑alkyne)GVPGGGVPGAGVPG[Phe(4-N3)](palmitic acid‑alkyne)GVPGGGVPGAGVPG[Phe(4-N3)](palmitic acid‑alkyne)GVPGGGVPGAGVPG[Phe(4-N3)](palmitic acid‑alkyne)GVPGGGVPGAGVPG[Phe(4-N3)](palmitic acid‑alkyne)GPGGGG-{GFP}
# modifications: also: conjugated by click reaction
# notes: ELP(30TAG)-GFP with 30 pAzF conjugated by click reaction to palmitic acid-alkyne
# Tests used:
# ELP(30TAG)-GFP [1] = assay: ELP expression and purification, yield of purified ELP(30TAG)-GFP; type: cell-based, E. coli; conditions: for yield of purified ELP(30TAG)-GFP compared to expression of WT protein: small batch cultures
# Method: Before batch expression, starter cultures (2 mL) of 2×YT media supplemented with 30 μg/mL kanamayacin and 20 μg/mL chloramphenicol were inoculated with transformed cells from a fresh agar plate or from stocks stored at −80° C., and incubated overnight at 34° C. while shaking at 250 rpm. Expression cultures (250 ml flasks containing 50 ml of 2×YT media, antibiotics, 0.2% arabinose and 1 mM of the nsAA) were inoculated with 0.5 ml of the starter culture and incubated at 34° C. for 4 h and then reporter protein expression was induced with 60 μg/mL anhydrotetracyclin.
# Cells were harvested 24 h after inoculation by centrifugation at 4,000 g for 15 min at 4° C. The cell pellet was resuspended by vortex in ˜1.5 mL PBS buffer and stored at −80° C. or immediately purified. For purification, resuspended pellets were lysed by ultrasonic disruption (9 cycles of 10 s sonication separated by 40 s intervals). Poly(ethyleneimine) (0.2 mL of 10% solution) was added to each lysed suspension before centrifugation at 15,000 g for 3 min to separate cell debris from the soluble cell lysate.
# All ELP constructs were purified by a modified Inverse Transition Cycling (ITC) protocol consisting of multiple “hot” and “cold” spins using sodium citrate to trigger the phase transition. Before purification, the soluble cell lysate was incubated for 1-2 min at ˜65° C. to denature native E. coli proteins. For “hot” spins, the ELP phase transition was triggered by adding sodium citrate to the cell lysate or the product of a previous cycle of ITC at a final concentration of ˜0.5 M. The solutions were then centrifuged at 14,000 g for 3 min and the pellets were resuspended in PBS, followed by a 3-5 min “cold” spin performed without addition of sodium citrate to remove denatured contaminant. Additional rounds of ITC were carried out as needed until sufficient purification was achieved.
# Protein concentration was calculated by measuring the OD280 of purified protein stocks according to the following extinction coefficients for ELP(30TAG)-GFP.
# GFP(3TAG) = type: cell-based, E. coli; conditions: plasmid-based pAcF OTS in the GRO
# Method: (§1) Liquid cell cultures of strains harboring chromosomally integrated OTSs and GFP reporter plasmids were inoculated from frozen stocks and grown to confluence overnight. Cultures were then inoculated at 1:20 dilution in LBmin media supplemented with 30 μg/ml kanamycin. Strains were inoculated by addition of 1:20 confluent cell culture (grown overnight) and allowed to grow at 34° C. to an OD600 of 0.5-0.8 in a shaking plate incubator at 650 r.p.m (˜3 h). AARS expression was then induced by the addition of 0.2% arabinose, GFP expression was induced by the addition of 60 ng/ul anhydrotetracycline, and the appropriate nsAA was added to a concentration of 1 mM. Cells were incubated at 34° C. for an additional 16 h. Liquid cell cultures of strains harboring plasmid-based OTSs and GFP or ELP-GFP reporter plasmids were inoculated from frozen stocks and grown to confluence overnight. Cultures were then inoculated at 1:20 dilution in 2×YT media supplemented with 30 μg/ml kanamycin and 20 μg/ml chloramphenicol. […] Cells were allowed to grow at 34° C. to an OD600 of 0.5-0.8 in a shaking plate incubator at 650 r.p.m (˜3 h), reporter protein expression was then induced by the addition of 60 ng/ul anhydrotetracycline, and cells were incubated at 34° C. for an additional 16 h.
# (§2) For 384 well plate-based assays, fluorescence and OD600 were directly measured following expression. For 96 well plate-based assays, cells were centrifuged at 4,000 g for 4 min. Supernatant medium was removed and cells were resuspended in PBS. This process was repeated twice with PBS. GFP fluorescence was measured on a Biotek spectrophotometric plate reader using excitation and emission wavelengths of 395 and 509 nm, respectively). Fluorescence signals were normalized by dividing the fluorescence counts by the OD600 reading. The nsAAs used in this study were purchased from Sigma-Aldrich (St. Louis, Mo.), Chemlmpex (Wood Dale, Ill.), and Bachem (Torrance, Calif.). Solutions of nsAAs (50 mM) were made in water or 50 mM NaOH; these stock solutions were diluted 50- or 100-fold (to 1 mM final concentration) into medium used for bacterial growth.
# ELP(30TAG)-GFP [2] = assay: Intact cell GFP fluorescence, ELP(30TAG)-GFP production; type: cell-based, E. coli; conditions: plasmid-based pAcF OTS in the GRO
# Method: as §1, §2
# ELP(10TAG)-GFP = assay: Intact cell GFP fluorescence, ELP(10TAG)-GFP production; parameters: species or system E. coli; conditions: plasmid-based pAcF OTS in the GRO
# Method: Liquid cell cultures of strains harboring chromosomally integrated OTSs and GFP reporter plasmids were inoculated from frozen stocks and grown to confluence overnight. Cultures were then inoculated at 1:20 dilution in LBmin media supplemented with 30 μg/ml kanamycin. Strains were inoculated by addition of 1:20 confluent cell culture (grown overnight) and allowed to grow at 34° C. to an OD600 of 0.5-0.8 in a shaking plate incubator at 650 r.p.m (˜3 h). AARS expression was then induced by the addition of 0.2% arabinose, GFP expression was induced by the addition of 60 ng/ul anhydrotetracycline, and the appropriate nsAA was added to a concentration of 1 mM. Cells were incubated at 34° C. for an additional 16 h. Liquid cell cultures of strains harboring plasmid-based OTSs and GFP or ELP-GFP reporter plasmids were inoculated from frozen stocks and grown to confluence overnight. Cultures were then inoculated at 1:20 dilution in 2×YT media supplemented with 30 μg/ml kanamycin and 20 μg/ml chloramphenicol. […]
# For 384 well plate-based assays, fluorescence and OD600 were directly measured following expression. […] GFP fluorescence was measured on a Biotek spectrophotometric plate reader using excitation and emission wavelengths of 395 and 509 nm, respectively). Fluorescence signals were normalized by dividing the fluorescence counts by the OD600 reading. […]
# BSA = BSA (Bos taurus, UniProt P02769); assay: Binding to BSA coated agarose beads, GFP fluorescence; conditions: palmitic acid conjugated; 30 vs. 1 pAzF instances
# BSA, sequence (P02769 25-607): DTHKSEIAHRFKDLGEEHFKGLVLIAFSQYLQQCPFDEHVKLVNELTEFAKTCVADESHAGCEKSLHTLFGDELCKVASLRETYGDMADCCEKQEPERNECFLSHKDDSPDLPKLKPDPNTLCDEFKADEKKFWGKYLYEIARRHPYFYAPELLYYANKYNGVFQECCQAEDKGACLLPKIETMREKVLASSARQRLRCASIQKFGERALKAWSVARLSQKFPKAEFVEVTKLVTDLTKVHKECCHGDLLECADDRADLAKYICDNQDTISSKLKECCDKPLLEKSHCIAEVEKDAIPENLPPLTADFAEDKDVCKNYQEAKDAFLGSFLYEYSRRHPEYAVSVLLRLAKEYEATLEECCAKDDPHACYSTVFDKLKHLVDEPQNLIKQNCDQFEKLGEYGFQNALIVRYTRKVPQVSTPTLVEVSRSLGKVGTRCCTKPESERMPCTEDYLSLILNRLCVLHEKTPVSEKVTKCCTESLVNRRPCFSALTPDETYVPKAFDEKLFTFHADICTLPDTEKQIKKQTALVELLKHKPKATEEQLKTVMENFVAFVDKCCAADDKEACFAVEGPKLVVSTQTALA
# Text: When supplied with insufficient amounts of alkyne (a ratio of 0.125, 0.25 and 0.5 alkyne:azide), a partial shift was observed as well as a “smear” of the protein band that signifies stochastic reaction of less than 30 sites. In contrast, when sufficient alkyne was supplied, a sharp band is apparent with a consistent size shift compared with the unreacted control. Next, ELP-GFP containing either 30 azide groups or a single azide group and 30 tyrosine groups were contacted with BSA coated agarose beads. The beads were subsequently washed and the amount of protein bound to the beads was measured via GFP fluorescence. The results are illustrated in FIG. 11.
Molecule,yield of purified ELP(30TAG)-GFP compared to expression of WT protein (ELP(30TAG)-GFP [1]; GRO),yield of purified ELP(30TAG)-GFP compared to expression of WT protein (ELP(30TAG)-GFP [1]; parent (non-recoded) strain),GFP(3TAG) fluorescence compared to WT-protein (GFP(3TAG)),ELP(30TAG)-GFP fluorescence compared to WT-protein (ELP(30TAG)-GFP [2]),ELP(10TAG)-GFP fluorescence compared to WT-protein (ELP(10TAG)-GFP),"Yield of purified ELP(30TAG)-GFP (ELP(30TAG)-GFP [1]; nsAA pAzF, GRO)",BSA binding (BSA)
"CC(=O)c1ccc(C[C@H](N)C(=O)O)cc1 [pAcF, p-acetyl-L-phenylalanine, reference compound]",18%,8%,110%,25%,87%,,
"[N-]=[N+]=Nc1ccc(C[C@H](N)C(=O)O)cc1 [pAzF, p-azido-L-phenylalanine, reference compound]",,,75%,6%,32%,too low to allow for purification,
B1,,,,,,,improved BSA binding
